Values joined by “and” are separate entries in the source; they are usually repeats but may differ in a detail not shown here. Equal values may be shown once.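 Step 1: Grow cells in 96-well plates. Step 2: Expose to compound for 48 hours at 5 concentrations. Step 3: Interpolate endpoints linearly; if unreached, use highest concentration. The concentration for 50% growth inhibition is given as GI50. TGI marks complete inhibition of growth.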
Key:
Assay in all cases: inhibition of tumour cell growth, NCI panel, 48 h
SK-OV-3 ovarian = system: SK-OV-3 ovarian
UO-31 renal = system: UO-31 renal
A498 renal = system: A498 renal
SF-295 CNS = system: SF-295 CNS
NCI/ADR-RES ovarian = system: NCI/ADR-RES ovarian
HS 578T breast = system: HS 578T breast
HCT-116 colon = system: HCT-116 colon
LOX IMVI melanoma = system: LOX IMVI melanoma
NCI-H522 lung = system: NCI-H522 lung
NCI-H226 lung = system: NCI-H226 lung

Row | SMILES | GI50 (SK-OV-3 ovarian) | TGI (SK-OV-3 ovarian) | GI50 (UO-31 renal) | TGI (UO-31 renal) | GI50 (A498 renal) | TGI (A498 renal) | GI50 (SF-295 CNS) | TGI (SF-295 CNS) | GI50 (NCI/ADR-RES ovarian) | TGI (NCI/ADR-RES ovarian) | GI50 (HS 578T breast) | TGI (HS 578T breast) | GI50 (HCT-116 colon) | TGI (HCT-116 colon) | GI50 (LOX IMVI melanoma) | TGI (LOX IMVI melanoma) | GI50 (NCI-H522 lung) | TGI (NCI-H522 lung) | GI50 (NCI-H226 lung) | TGI (NCI-H226 lung)
1 | COc1cc2nccc(Oc3ccc(NC(=O)C4(C(=O)Nc5ccc(F)cc5)CC4)cc3)c2cc1OC | > 10 µM and 5.83 µM | > 10 µM and 42.3 µM | 4.3 µM and 2.33 µM | > 10 µM and 12.7 µM | 1.2 µM and 0.429 µM | > 10 µM and 3.43 µM | 0.406 µM and 0.289 µM | > 10 µM and 4.95 µM | > 10 µM and 3.43 µM | > 100 µM | 0.45 µM and 0.857 µM | > 10 µM and 10.8 µM | > 10 µM and 3.73 µM | > 41.5 µM | 6.11 µM and 2.61 µM | > 10 µM and 15.2 µM | > 10 µM and 4.28 µM | > 45.3 µM | 2.29 µM and 1.7 µM | > 10 µM and 5.52 µM
2 | Cn1c(=O)c(Oc2ccc(F)cc2F)cc2cnc(NC3CCC(O)CC3)nc21 (centres undefined) | > 25 µM | > 25 µM | 12.1 µM | > 25 µM | 5.89 µM | > 25 µM | > 25 µM | > 25 µM | > 25 µM | > 25 µM | > 25 µM | > 25 µM | > 25 µM | > 25 µM | > 25 µM | > 25 µM | > 25 µM | > 25 µM | > 25 µM | > 25 µM
3 | COc1ccc(S(=O)(=O)NCCCNc2nccc(-c3c(-c4ccc(F)cc4)nc4sccn34)n2)cc1 | 8.11 µM | > 100 µM | 3.83 µM | > 100 µM | 1.21 µM | 8.37 µM | 11.2 µM | 72.3 µM | 5.23 µM | > 100 µM | 3.58 µM | > 100 µM | 4.85 µM | > 100 µM | 5.53 µM | > 100 µM | 5.02 µM | > 100 µM | 6.06 µM | > 100 µM
4 | O=C(Nc1cccc(C(F)(F)F)c1)Nc1cc(S(=O)(=O)NC2CC2)ccc1-c1ccsc1 | 4.39 µM | 17 µM | 3.3 µM | 13.3 µM | 2.45 µM | 7.31 µM | 3.16 µM | 11.8 µM | 6.05 µM | 26.9 µM | 8.96 µM | 35.8 µM | 3.51 µM | 13.4 µM | 4.5 µM | 16.9 µM | 3.05 µM | 13 µM | 4.82 µM | 19 µM
5 | ClCc1ccc(Cn2cnc3nc(Cl)nc(Cl)c32)cc1 | 2.36 µM | 5.7 µM | 1.41 µM | 2.88 µM | 4.36 µM | 8.48 µM | 1.75 µM | 3.27 µM | 1.77 µM | 3.36 µM | 19.2 µM | 44.8 µM | 0.235 µM | 1.26 µM | 0.487 µM | 1.23 µM | 1.85 µM | 4.41 µM | 0.946 µM | 2.92 µM
6 | Oc1ccc(/C=N/Nc2nnc(N/N=C/c3ccc(O)cc3O)c3ccccc23)c(O)c1 | 0.552 µM | 4.5 µM | 0.282 µM | 3.92 µM | 1.33 µM | 3.51 µM | 0.173 µM | 0.813 µM and 0.597 µM |  | 12.5 µM | 0.5 µM | 0.954 µM | 0.348 µM | 2.16 µM | 0.277 µM | 0.871 µM and 1.5 µM | 0.253 µM | 0.799 µM | 1.92 µM | 6.98 µM
7 | OCCn1c(-c2ccncc2)c(-c2ccc(F)cc2)c2ncccc21 | > 25 µM | > 25 µM | 12.5 µM | > 25 µM | > 20.3 µM | > 25 µM | > 25 µM | > 25 µM | > 25 µM | > 25 µM | > 25 µM | > 25 µM | > 25 µM | > 25 µM | > 25 µM | > 25 µM | > 25 µM | > 25 µM | > 25 µM | > 25 µM
8 | CC(=O)OC1CCC2(C)C(=CCC3C4CC(CN5CC5)C(=O)C4(C)CCC32)C1 (centres undefined) | 15.6 µM | 29.6 µM | 2.99 µM | 10.4 µM | 11.4 µM | 24.9 µM | 22 µM | > 55.4 µM | 16 µM | 41.5 µM | 20.4 µM | 65.8 µM | 3.44 µM | 10.1 µM | 6.58 µM | 18.2 µM | 1.52 µM | 3.26 µM | 14.8 µM | 40.2 µM
9 | CC(C)C12CCC3(CCC4C(C)(C(=O)O)CCCC4(C)C3C1)C(CN)C2 (centres undefined) |  | > 100 µM |  | > 100 µM |  | 98.4 µM |  | > 100 µM |  | > 100 µM |  | > 100 µM |  | 34.2 µM |  | 34.7 µM |  | 70.3 µM |  | > 100 µM
10 | CC(=O)OCc1cc2c(s1)C(=O)c1sccc1C2=O |  | 3.3 µM |  | 0.391 µM |  | 3.23 µM |  | 0.162 µM |  | 0.413 µM |  | 0.422 µM |  | 3.38 µM |  | 0.0468 µM |  | 0.295 µM |  | 1.24 µM
11 | O=C1C(=O)c2c(ccc3ccccc23)-c2ccccc21 | 2.05 µM | 5.06 µM | 2.39 µM | > 100 µM | 10.4 µM | 26 µM | 1.92 µM | 4.6 µM | 1.19 µM | 5.88 µM | 2.05 µM | 6 µM | 0.384 µM | 2.87 µM | 1.38 µM | 3.93 µM | 1.32 µM | 3.13 µM | 2.02 µM | 5.02 µM
12 | O=C1COc2c(CCNCCN(C(=O)CCNCCc3ccc(Cl)c(Cl)c3)C3CCCCC3)ccc(O)c2N1 | 16 µM | 30.8 µM | 16 µM | 31 µM | 13.9 µM | 28.4 µM | 15.7 µM | 30.8 µM | > 100 µM | > 100 µM | 15.4 µM | 34.9 µM | 14.6 µM | 28.4 µM | 15.6 µM | 30.2 µM | 15.2 µM | 32.3 µM | 17.7 µM | 35.9 µM

Reference: PubChem BioAssay (NCI)
